Experimental data published in paper PMC11695783 (Frontiers in Pharmacology, 2024).

System: Mycoplasma pneumoniae strain M129 (ATCC 29342)
Experiment: Time-kill curves
Format: cell-based
Set-up: M. pneumoniae count in time-kill curve: unit not given here
Protocol: Mycoplasma pneumoniae strain M129 (ATCC 29342) was obtained from American Type Culture Collection (Manassas, VA, United States) and cultured at 37°C in the presence of 5% CO2 in the modified SP-4 liquid medium (pH 7.4) containing 2.1% (w/v) CM1166 mycoplasma broth base medium (Oxoid, Hants, United Kingdom), 20% (v/v) fetal bovine serum (FBS, Bioexplorer, CO, United States), 0.4% yeast extract (Oxoid), 0.55% (w/v) CMRL 1066 w/L-glutamine culture media powder (MyBioSource, San Diego, CA, United States), 1% D-glucose (Macklin) and 0.004% phenol red (Macklin). […] The solid medium is based on the above formula with the addition of 1% agar, and the characteristic fried egg-like colonies were used for experiments following incubation for 7 d on plates.
The tubes were incubated at 37°C in 5% CO2 for 72 h, and 200 µL of the culture was removed every 12 h for 10-fold serial dilutions. The diluted cultures were plated on plates for further culture and counted after 7 d. The experiment was repeated three times.

## O=C(O)c1cn(C2CC2)c2cc(N3CCNCC3)c(F)cc2c1=O [ciprofloxacin]
1×MIC, time 0
  M. pneumoniae count in time-kill curve: 7.07
1×MIC, time 12
  M. pneumoniae count in time-kill curve: 6.346
1×MIC, time 24
  M. pneumoniae count in time-kill curve: 6.462
1×MIC, time 36
  M. pneumoniae count in time-kill curve: 6.137
1×MIC, time 48
  M. pneumoniae count in time-kill curve: 6.414
1×MIC, time 60
  M. pneumoniae count in time-kill curve: 6.605
1×MIC, time 72
  M. pneumoniae count in time-kill curve: 5.901
2×MIC, time 0
  M. pneumoniae count in time-kill curve: 7.07
2×MIC, time 12
  M. pneumoniae count in time-kill curve: 6.0302
2×MIC, time 24
  M. pneumoniae count in time-kill curve: 6.128
2×MIC, time 36
  M. pneumoniae count in time-kill curve: 5.661
2×MIC, time 48
  M. pneumoniae count in time-kill curve: 5.8
2×MIC, time 60
  M. pneumoniae count in time-kill curve: 5.6841
2×MIC, time 72
  M. pneumoniae count in time-kill curve: 4.597
4×MIC, time 0
  M. pneumoniae count in time-kill curve: 7.07
4×MIC, time 12
  M. pneumoniae count in time-kill curve: 5.551
4×MIC, time 24
  M. pneumoniae count in time-kill curve: 5.334
4×MIC, time 36
  M. pneumoniae count in time-kill curve: 5.292
4×MIC, time 48
  M. pneumoniae count in time-kill curve: 5.137
4×MIC, time 60
  M. pneumoniae count in time-kill curve: 5.179
4×MIC, time 72
  M. pneumoniae count in time-kill curve: 4.3324
8×MIC, time 0
  M. pneumoniae count in time-kill curve: 7.07
8×MIC, time 12
  M. pneumoniae count in time-kill curve: 5.507
8×MIC, time 24
  M. pneumoniae count in time-kill curve: 4.574
8×MIC, time 36
  M. pneumoniae count in time-kill curve: 4.144
8×MIC, time 48
  M. pneumoniae count in time-kill curve: 4.238
8×MIC, time 60
  M. pneumoniae count in time-kill curve: 3.8395
8×MIC, time 72
  M. pneumoniae count in time-kill curve: 3.628
16×MIC, time 0
  M. pneumoniae count in time-kill curve: 7.07
16×MIC, time 12
  M. pneumoniae count in time-kill curve: 5.235
16×MIC, time 24
  M. pneumoniae count in time-kill curve: 4.279
16×MIC, time 36
  M. pneumoniae count in time-kill curve: 3.946
16×MIC, time 48
  M. pneumoniae count in time-kill curve: 3.861
16×MIC, time 60
  M. pneumoniae count in time-kill curve: 3.824
16×MIC, time 72
  M. pneumoniae count in time-kill curve: 3.354
32×MIC, time 0
  M. pneumoniae count in time-kill curve: 7.07
32×MIC, time 12
  M. pneumoniae count in time-kill curve: 4.952
32×MIC, time 24
  M. pneumoniae count in time-kill curve: 4.119
32×MIC, time 36
  M. pneumoniae count in time-kill curve: 3.694
32×MIC, time 48
  M. pneumoniae count in time-kill curve: 3.873
32×MIC, time 60
  M. pneumoniae count in time-kill curve: 3.5568
32×MIC, time 72
  M. pneumoniae count in time-kill curve: 3.233
64×MIC, time 0
  M. pneumoniae count in time-kill curve: 7.07
64×MIC, time 12
  M. pneumoniae count in time-kill curve: 5.252
64×MIC, time 24
  M. pneumoniae count in time-kill curve: 3.933
64×MIC, time 36
  M. pneumoniae count in time-kill curve: 3.756
64×MIC, time 48
  M. pneumoniae count in time-kill curve: 3.771
64×MIC, time 60
  M. pneumoniae count in time-kill curve: 3.185
64×MIC, time 72
  M. pneumoniae count in time-kill curve: 2.981
